Source: US20240350471A1, “PHARMACEUTICAL COMPOSITION FOR PREVENTING OR TREATING ATTENTION DEFICIT/HYPERACTIVITY DISORDER” (DANKOOK UNIVERSITY CHEONAN CAMPUS INDUSTRY ACADEMIC …, priority 2021, published 2024)

System: Git1 hetero type (+/−) mice
Assay: Open field test in Git1 hetero type (+/−) ADHD model mice treated with SNAP5114
Assay type: in vivo
Settings: SNAP5114 I.P. 50 ug/kg for 7 days prior to the experiment, movement measured for 10 minutes
Experimental: Git1 gene-deficient hetero (+/−) mice were prepared as an animal model with attention deficit/hyperactivity disorder (ADHD). Wild-type mice and GIT1 gene-deficient knock-out type (KO type) mice were crossed to obtain GIT1 gene-deficient hetero type. After making mating cages for among the obtained hetero type mice, genotyping was performed to isolate the hetero type mice. SNAP5114 was administered intraperitoneally (I.P.) at a concentration of 50 ug/kg for 7 days prior to the experiment. SNAP5114 was dissolved in 10% DMSO and then used by dissolving in 90% saline just before the experiment. Open field tests were performed to evaluate behavioral morphology and, in order to determine the characteristics of tonic GABA in the striatum, a representative brain region that controls hyperactivity, immunohistochemistry and electrophysiological measurements (patch clamp recording) were performed. Considering that changes in the amount of GABA associated with astrocytes in ADHD model mice are related to the transport protein that transports GABA into the astrocytes, behavioral experiments were conducted by treating the SNAP5114, an inhibitor of GABA transporter-3 (GAT-3). […] The mice were placed in the center of an open field test cage (30×30×30 cm), and its movement was measured for 10 minutes. The measured videos were analyzed for locomotor activity through ANYmaze.

COc1ccc(C(OCCN2CCC[C@H](C(=O)O)C2)(c2ccc(OC)cc2)c2ccc(OC)cc2)cc1 [SNAP5114, (S)-1-(2-(tris(4-methoxyphenyl)methoxy)ethyl)piperidine-3-carboxylic acid]
hyperactivity (distance of movement, locomotor activity) in open field test: hyperactivity was found to be ameliorated to the level of WT
